Assay results published in US7400979B2, “Method of identifying inhibitors of Lck” (Abbott Laboratories, priority 2001, dated 2008).

Key:
[1] = molecular target: Lck protein tyrosine kinase (Homo sapiens, UniProt P06239); test: Lck inhibition assay: ELISA for protein tyrosine kinases; format: biochemical; settings: poly(Glu4Tyr) substrate, 5 μM ATP, 5% DMSO, result in words
Text: (§1) The disclosed protocol was adapted for determining activity with respect to a specific protein tyrosine kinase, e.g. Lck. […] Adaptation of these protocols for determining the activity of a compound against other protein tyrosine kinases, for example Hck, are well within the abilities of those skilled in the art. […] The following procedure was used to assay the inhibitory effect of compounds of this invention on Lck protein tyrosine kinase activity:
Store on ice. […] Store on ice.

[2] = molecular target: Hck (Homo sapiens, UniProt P08631); test: ELISA for protein tyrosine kinases adapted to Hck (inhibitor selectivity); format: biochemical; settings: result in words; b177 defines selective as IC50 for Lck at least 10-fold lower than for the related protein
Hck, sequence (P08631 whole entry): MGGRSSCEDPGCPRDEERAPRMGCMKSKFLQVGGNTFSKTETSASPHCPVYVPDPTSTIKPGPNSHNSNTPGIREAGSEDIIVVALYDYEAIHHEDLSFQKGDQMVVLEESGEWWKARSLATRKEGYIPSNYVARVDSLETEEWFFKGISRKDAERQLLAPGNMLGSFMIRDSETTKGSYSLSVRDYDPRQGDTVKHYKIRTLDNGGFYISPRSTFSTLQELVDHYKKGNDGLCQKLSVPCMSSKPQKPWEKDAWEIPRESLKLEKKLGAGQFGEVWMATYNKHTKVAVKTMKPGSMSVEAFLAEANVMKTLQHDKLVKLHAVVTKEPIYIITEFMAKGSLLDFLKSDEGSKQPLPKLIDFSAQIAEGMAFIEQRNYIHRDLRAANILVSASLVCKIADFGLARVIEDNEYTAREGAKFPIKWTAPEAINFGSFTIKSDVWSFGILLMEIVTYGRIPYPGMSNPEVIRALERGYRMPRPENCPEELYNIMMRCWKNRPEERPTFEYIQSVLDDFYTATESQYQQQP
Text: as §1, with “activity: […]” for “activity:”

Lck protein tyrosine kinase, sequence (P06239 whole entry): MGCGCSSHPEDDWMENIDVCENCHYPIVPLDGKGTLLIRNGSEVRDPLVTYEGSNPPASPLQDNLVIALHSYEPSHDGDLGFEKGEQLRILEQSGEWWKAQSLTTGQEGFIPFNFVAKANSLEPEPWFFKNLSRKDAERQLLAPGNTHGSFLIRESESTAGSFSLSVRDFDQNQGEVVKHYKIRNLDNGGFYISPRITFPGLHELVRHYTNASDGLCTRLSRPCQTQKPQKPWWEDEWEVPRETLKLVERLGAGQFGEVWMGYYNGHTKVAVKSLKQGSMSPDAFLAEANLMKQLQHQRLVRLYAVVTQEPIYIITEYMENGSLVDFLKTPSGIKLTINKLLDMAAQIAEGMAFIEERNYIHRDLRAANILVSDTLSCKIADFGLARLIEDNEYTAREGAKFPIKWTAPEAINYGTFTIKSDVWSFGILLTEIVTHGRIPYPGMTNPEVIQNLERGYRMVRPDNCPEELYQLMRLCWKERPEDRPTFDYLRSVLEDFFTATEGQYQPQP

| SMILES | Lck inhibition (in vitro potency) [1] | selectivity for Lck over Hck [2] |
| --- | --- | --- |
| CNCCCN(C)C/C=C/c1[nH]c(=O)c2c(ccc3nc(Nc4c(Cl)cccc4Cl)n(C)c32)c1C [inhibitor 13, 2-(2,6-dichloroanilino)-1,6-dimethyl-7-((E)-3-{methyl[3-(methylamino)propyl]amino}-1-propenyl)-8,9-dihydro-1H-imidazo[4,5-h]isoquinolin-9-one] | potent inhibitor of Lck | inhibit Lck selectively over Hck |
| CN1CCN([C@H]2CC[C@H](n3nc(-c4ccc(Nc5n[nH]c6ccccc56)cc4)c4c(N)ncnc43)CC2)CC1 [inhibitor 15, trans-3-[4-(1H-3-indazolylamino)phenyl]-1-[4-(4-methylpiperazino)cyclohexyl]-1H-pyrazolo[3,4-d]pyrimidin-4-amine] | potent inhibitor of human Lck | – |
